Source: patent US20190308963A1, “HETEROCYCLIC COMPOUNDS AND USES THEREOF” (priority 2018, published 2019)

Columns and labels:
[1] = target: PI3Kδ (p110δ/p85α) (Homo sapiens, UniProt O00329); test: cell-free PI3K HTRF assay, PI3Kδ
Method: (§4) Exemplary compounds of the invention were tested for inhibitory activity or potency against class I PI3Ks (p110α/p85α, p110β/p85α, p110δ/p85α and p110γ) using a cell-free based PI3K HTRF assay. This assay was used to detect the formation of the product 3,4,5-inositol triphosphate molecule (PIP3) by displacement of biotin-PIP3 from an energy transfer complex consisting of Europium labeled anti-GST monoclonal antibody, a GST-tagged pleckstrin homology (PH) domain, biotinylated PIP3 and Streptavidin-Allophycocyanin (APC). […] The PIP3 product formed by human PI3-Kinase activity displaces biotin-PIP3 from the complex resulting in a loss of energy transfer and thus a decrease in signal.
(§5) Human class I PI3K isoforms were co-expressed in a Baculovirus infected cell expression system. The PI3K isoforms were assayed in the presence of HEPES (50 mM, pH 7.0), NaN3 (0.02%), BSA (0.01%), orthovanadate (0.1 mM), and DMSO (1%). The exemplary compounds dissolved in DMSO were delivered into the kinase reaction mixture by Acoustic technology (Echo550; nanolitter range), and were pre-incubated for 10 min at room temperature before adding ATP (10 μM) to initiate the reaction. […] The emission ratio is converted into μM PIP3 production based on PIP3 standard curves, and the nonlinear regression to obtain the standard curve and IC50 values are performed using Graphpad Prism software.

[2] = target: T1, BRD4 (BD1) (Homo sapiens, UniProt O60885); test: AlphaScreen FRET binding assay, BRD4 (BD1); settings: read-out: IC50 value for the inhibition of BRD4 (BD1)
T1 construct: recombinant human BRD4 (BD1; aa 44-170); purchased Reaction Biology Corporation (contract assay service); host or cells: E. coli
Method: (§1) Exemplary compounds of the invention were tested for inhibitory activity or potency against BRD4 (BD1) and BRD4 (BD2) using AlphaScreen FRET binding assay, and exemplary compounds of the invention were further tested for inhibitory activity or potency against class I PI3Ks (p110α/p85α, p110β/p85α, p110δ/p85α and p110γ) using a cell-free based .P13K HTRF assay. All assays were performed at Reaction Biology Corporation, One Great Valley Parkway, Suite 2, Malvem, Pa.
(§2) Exemplary compounds of the invention were tested for inhibitory activity or potency against BRD4 (BD1) and BRD4 (BD2) using AlphaScreen FRET binding assay. […] Briefly, donor beads coated with streptavidin were incubated with biotinylated histone H4 peptide (residues 1-21) containing KAc (K5/^8/12/16Ac). In the absence of inhibitor, the. His-tagged reader domain of BRD4 binds to KAc-histone H4 peptide, thereby recruiting acceptor beads coated with a nickel chelator. Binding potential is assessed by detecting light emission (520-620 nm) from acceptor beads following laser excitation (680 nm) of a photosensitizer within the donor beads that converts ambient oxygen to singlet oxygen.
(§3) All IC50 values were reported in unites of nM.

[3] = system: class I PI3Ks; test: summary in words of the class I PI3K (and BRD4) results; assay type: biochemical, human; settings: for activity against PI3K in words: novel BRD inhibitors without PI3K activity; for overall activity in words (class I PI3Ks and BRD4): against both divergent targets
Method: Exemplary compounds of the invention were tested for inhibitory activity or potency against class I PI3Ks (p110α/p85α, p110β/p85α, p110δ/p85α and p110γ) using a cell-free based PI3K HTRF assay. This assay was used to detect the formation of the product 3,4,5-inositol triphosphate molecule (PIP3) by displacement of biotin-PIP3 from an energy transfer complex consisting of Europium labeled anti-GST monoclonal antibody, a GST-tagged pleckstrin homology (PH) domain, biotinylated PIP3 and Streptavidin-Allophycocyanin (APC). Excitation of Europium in the complex results in an energy transfer to the APC and a fluorescent emission at 665 nm. The PIP3 product formed by human PI3-Kinase activity displaces biotin-PIP3 from the complex resulting in a loss of energy transfer and thus a decrease in signal.
Human class I PI3K isoforms were co-expressed in a Baculovirus infected cell expression system. The PI3K isoforms were assayed in the presence of HEPES (50 mM, pH 7.0), NaN3 (0.02%), BSA (0.01%), orthovanadate (0.1 mM), and DMSO (1%). The exemplary compounds dissolved in DMSO were delivered into the kinase reaction mixture by Acoustic technology (Echo550; nanolitter range), and were pre-incubated for 10 min at room temperature before adding ATP (10 μM) to initiate the reaction. After 30 min at 30° C., the reactions were quenched with a stop solution, incubated overnight with a detection mixture before measuring HTRF (Ex: 320 nm; Em: 615/665 nm). The emission ratio is converted into μM PIP3 production based on PIP3 standard curves, and the nonlinear regression to obtain the standard curve and IC50 values are performed using Graphpad Prism software.
All IC50 values were reported in unites of nM. Empty cells indicate no inhibition or compound activity that could not be fit to an IC50 curve.
Dual inhibitors of class I PI3Ks and BRD4 are rare because class I PI3Ks and BRD4 are two structurally and functionally unrelated targets. […] The unexpected dual inhibitory activity or potency against both divergent targets is attributed to not only the unusual overall shape of the molecules of the present invention (as described in U.S. Pat. No. 9,637,488), but also the specific KAc-mimicking groups selected and their position incorporated into the quinoline ring.

[4] = target: T2, BRD4 (BD2) (Homo sapiens, UniProt O60885); test: AlphaScreen FRET binding assay, BRD4 (BD2); settings: read-out: IC50 value for the inhibition of BRD4 (BD2)
T2 construct: recombinant human BRD4 (BD2; aa 349-460); purchased Reaction Biology Corporation (contract assay service); host or cells: E. coli
Method: as §1, §2, §3

[5] = target: PI3Kγ (p110γ) (Homo sapiens, UniProt P48736); test: cell-free PI3K HTRF assay, PI3Kγ
Sequence of PI3Kγ (p110γ) (P48736 whole entry): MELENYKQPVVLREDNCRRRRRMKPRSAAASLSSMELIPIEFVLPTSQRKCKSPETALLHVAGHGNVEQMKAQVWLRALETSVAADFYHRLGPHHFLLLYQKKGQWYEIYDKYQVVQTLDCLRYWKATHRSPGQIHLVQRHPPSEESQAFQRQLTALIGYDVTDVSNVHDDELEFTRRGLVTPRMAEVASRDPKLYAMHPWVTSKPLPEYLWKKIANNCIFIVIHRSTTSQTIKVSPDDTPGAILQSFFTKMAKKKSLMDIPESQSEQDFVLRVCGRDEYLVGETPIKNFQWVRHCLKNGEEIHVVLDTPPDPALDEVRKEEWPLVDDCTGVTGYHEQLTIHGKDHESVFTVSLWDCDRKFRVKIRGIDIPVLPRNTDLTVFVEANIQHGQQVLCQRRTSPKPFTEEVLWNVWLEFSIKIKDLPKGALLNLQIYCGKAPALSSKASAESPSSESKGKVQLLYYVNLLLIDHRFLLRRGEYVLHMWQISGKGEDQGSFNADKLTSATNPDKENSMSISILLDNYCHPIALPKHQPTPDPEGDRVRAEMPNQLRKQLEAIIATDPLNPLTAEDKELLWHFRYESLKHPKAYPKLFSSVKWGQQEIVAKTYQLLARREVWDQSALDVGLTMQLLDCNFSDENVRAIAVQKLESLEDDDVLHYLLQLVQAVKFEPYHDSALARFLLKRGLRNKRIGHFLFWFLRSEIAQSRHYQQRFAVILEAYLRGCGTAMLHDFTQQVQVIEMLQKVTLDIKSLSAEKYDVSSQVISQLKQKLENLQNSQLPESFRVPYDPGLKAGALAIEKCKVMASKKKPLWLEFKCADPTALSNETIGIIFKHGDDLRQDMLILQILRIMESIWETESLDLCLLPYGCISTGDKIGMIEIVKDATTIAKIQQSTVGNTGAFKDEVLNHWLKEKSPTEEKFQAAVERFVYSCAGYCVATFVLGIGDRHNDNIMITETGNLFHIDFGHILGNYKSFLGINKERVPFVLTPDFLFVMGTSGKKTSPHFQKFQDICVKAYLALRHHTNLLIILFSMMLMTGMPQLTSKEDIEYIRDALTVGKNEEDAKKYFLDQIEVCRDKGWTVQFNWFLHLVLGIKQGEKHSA
Method: as §4, §5

[6] = target: PI3Kβ (p110β/p85α) (Homo sapiens, UniProt P42338); test: cell-free PI3K HTRF assay, PI3Kβ
Sequence of PI3Kβ (p110β/p85α) (P42338 whole entry): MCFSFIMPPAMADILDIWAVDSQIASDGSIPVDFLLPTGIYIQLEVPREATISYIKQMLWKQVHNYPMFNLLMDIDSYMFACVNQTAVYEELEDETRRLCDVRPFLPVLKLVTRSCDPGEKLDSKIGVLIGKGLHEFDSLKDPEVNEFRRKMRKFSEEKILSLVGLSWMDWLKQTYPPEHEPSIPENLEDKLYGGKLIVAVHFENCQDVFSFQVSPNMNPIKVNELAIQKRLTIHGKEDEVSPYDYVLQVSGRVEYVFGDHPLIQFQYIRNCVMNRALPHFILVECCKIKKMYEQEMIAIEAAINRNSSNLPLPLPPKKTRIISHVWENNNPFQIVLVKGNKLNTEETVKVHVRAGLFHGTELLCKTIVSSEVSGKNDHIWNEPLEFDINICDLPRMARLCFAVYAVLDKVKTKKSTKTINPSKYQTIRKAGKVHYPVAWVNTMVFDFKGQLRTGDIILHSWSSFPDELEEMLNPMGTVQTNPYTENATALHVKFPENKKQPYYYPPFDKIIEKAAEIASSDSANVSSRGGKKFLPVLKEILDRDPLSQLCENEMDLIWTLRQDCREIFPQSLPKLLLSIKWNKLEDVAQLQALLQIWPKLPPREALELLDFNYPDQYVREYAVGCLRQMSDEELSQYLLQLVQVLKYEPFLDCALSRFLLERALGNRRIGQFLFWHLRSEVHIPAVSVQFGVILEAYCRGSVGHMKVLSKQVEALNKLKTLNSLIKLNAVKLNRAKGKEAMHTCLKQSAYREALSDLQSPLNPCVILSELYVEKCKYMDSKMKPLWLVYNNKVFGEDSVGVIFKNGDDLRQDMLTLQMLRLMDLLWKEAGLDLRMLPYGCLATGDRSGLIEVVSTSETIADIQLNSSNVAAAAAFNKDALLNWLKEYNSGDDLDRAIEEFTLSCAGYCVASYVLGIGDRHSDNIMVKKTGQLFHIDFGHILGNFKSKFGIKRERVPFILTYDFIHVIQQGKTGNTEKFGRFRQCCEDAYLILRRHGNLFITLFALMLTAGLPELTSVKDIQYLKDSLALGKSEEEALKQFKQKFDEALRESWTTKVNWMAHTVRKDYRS
Sequence of PI3Kβ (p110β/p85α) (P27986 whole entry partner): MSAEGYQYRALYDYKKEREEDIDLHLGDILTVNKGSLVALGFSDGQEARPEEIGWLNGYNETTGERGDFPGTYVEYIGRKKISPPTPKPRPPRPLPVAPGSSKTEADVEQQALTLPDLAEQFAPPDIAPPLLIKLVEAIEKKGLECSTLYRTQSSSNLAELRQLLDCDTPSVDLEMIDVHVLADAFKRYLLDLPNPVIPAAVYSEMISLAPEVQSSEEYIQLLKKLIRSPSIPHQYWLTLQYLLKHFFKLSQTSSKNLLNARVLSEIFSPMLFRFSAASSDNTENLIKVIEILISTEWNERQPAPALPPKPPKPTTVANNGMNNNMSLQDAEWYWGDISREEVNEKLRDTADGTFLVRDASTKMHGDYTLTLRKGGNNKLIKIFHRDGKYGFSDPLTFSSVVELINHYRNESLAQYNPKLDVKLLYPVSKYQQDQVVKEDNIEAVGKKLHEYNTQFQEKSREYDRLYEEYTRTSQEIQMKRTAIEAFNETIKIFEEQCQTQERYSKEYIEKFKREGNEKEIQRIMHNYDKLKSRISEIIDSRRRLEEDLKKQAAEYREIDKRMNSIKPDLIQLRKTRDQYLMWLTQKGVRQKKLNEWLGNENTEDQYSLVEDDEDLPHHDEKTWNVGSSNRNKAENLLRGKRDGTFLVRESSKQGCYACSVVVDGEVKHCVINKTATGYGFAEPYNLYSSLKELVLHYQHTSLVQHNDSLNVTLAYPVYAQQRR
Method: as §4, §5

[7] = target: PI3Kα (p110α/p85α) (Homo sapiens, UniProt P42336); test: cell-free PI3K HTRF assay, PI3Kα
Sequence of PI3Kα (p110α/p85α) (P42336 whole entry): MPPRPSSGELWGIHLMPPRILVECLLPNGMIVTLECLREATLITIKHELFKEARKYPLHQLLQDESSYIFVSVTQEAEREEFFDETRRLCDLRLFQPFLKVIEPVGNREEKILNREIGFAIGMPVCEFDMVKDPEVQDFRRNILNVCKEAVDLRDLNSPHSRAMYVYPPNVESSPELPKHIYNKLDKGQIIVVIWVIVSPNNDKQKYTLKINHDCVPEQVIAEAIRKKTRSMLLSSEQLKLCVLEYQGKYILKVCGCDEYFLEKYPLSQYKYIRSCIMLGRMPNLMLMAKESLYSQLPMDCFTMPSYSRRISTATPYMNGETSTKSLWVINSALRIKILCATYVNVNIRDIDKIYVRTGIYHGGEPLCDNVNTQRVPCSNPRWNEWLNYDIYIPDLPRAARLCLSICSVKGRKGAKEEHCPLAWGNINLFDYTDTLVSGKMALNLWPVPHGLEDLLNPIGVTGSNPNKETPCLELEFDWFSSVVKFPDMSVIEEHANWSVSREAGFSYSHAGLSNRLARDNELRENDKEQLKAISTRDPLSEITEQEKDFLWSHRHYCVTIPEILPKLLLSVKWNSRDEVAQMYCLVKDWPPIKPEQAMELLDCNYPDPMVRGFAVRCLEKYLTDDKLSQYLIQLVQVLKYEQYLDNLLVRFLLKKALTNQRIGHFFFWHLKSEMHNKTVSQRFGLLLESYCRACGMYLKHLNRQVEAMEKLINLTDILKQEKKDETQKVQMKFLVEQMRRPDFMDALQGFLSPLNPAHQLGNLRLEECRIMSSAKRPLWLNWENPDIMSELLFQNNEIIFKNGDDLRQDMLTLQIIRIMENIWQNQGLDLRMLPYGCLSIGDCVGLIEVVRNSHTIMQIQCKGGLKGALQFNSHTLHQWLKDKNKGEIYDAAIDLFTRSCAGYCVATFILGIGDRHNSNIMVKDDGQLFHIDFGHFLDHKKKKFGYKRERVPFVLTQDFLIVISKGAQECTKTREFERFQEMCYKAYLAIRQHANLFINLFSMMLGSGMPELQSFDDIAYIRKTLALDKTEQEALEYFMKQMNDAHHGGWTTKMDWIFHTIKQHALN
Sequence of PI3Kα (p110α/p85α) (P27986 whole entry partner): as the sequence (P27986 whole entry partner) above
Method: as §4, §5

Sequence of PI3Kδ (p110δ/p85α) (O00329 whole entry): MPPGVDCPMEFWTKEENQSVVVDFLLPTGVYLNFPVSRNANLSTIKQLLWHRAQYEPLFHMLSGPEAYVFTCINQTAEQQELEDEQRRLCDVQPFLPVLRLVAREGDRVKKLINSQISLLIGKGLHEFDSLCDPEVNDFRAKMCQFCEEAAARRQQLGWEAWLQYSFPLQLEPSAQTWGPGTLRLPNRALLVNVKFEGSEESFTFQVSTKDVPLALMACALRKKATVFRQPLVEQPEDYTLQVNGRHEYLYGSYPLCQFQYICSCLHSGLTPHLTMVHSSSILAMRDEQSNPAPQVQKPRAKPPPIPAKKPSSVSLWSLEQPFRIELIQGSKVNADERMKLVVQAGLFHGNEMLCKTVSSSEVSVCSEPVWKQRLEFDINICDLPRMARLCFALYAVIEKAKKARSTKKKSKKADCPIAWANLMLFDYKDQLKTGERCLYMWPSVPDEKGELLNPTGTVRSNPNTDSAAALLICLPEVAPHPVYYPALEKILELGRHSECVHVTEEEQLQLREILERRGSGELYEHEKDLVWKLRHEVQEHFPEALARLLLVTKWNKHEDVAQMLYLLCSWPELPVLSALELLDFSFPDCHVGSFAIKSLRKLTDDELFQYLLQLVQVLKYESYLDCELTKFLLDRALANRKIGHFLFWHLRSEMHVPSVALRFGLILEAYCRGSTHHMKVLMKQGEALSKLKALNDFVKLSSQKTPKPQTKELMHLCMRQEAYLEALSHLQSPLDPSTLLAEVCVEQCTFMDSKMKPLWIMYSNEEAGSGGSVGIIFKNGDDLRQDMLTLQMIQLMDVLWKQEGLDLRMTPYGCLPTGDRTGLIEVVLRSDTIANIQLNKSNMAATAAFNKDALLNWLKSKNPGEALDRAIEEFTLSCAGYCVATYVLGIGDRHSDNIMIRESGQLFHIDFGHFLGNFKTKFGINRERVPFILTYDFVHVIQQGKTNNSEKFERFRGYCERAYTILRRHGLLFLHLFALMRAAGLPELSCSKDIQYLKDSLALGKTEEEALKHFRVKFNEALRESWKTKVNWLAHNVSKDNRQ
Sequence of PI3Kδ (p110δ/p85α) (P27986 whole entry partner): as the sequence (P27986 whole entry partner) above

Row | SMILES | IC50 [1] [nM] | IC50 [2] [nM] | IC50 [4] [nM] | IC50 [5] [nM] | IC50 [6] [nM] | IC50 [7] [nM] | activity against PI3K in words [3] | overall activity in words (class I PI3Ks and BRD4) [3]
1 | Cc1noc(C)c1-c1nc2c(C)cccc2cc1C1CCCN1c1ncnc(N)c1C#N (stereo not drawn) [Compound 3, 4-amino-6-(2-(2-(3,5-dimethylisoxazol-4-yl)-8-methylquinolin-3-yl)pyrrolidin-1-yl)pyrimidine-5-carbonitrile] | 0.523 |  |  |  |  |  |  | 
2 | Cc1nnc2ccc(N3CCN(c4nc5cc(F)ccc5cc4C4CCCN4c4ncnc(N)c4C#N)CC3)nn12 (stereo not drawn) [Compound 4, 4-amino-6-(2-(7-fluoro-2-(4-(3-methyl-[1,2,4]triazolo[4,3-b]pyridazin-6-yl)piperazin-1-yl)quinolin-3-yl)pyrrolidin-1-yl)pyrimidine-5-carbonitrile] | 0.66 | 8000 |  |  |  |  |  | 
3 | Cn1cc(-c2ccc3cc(C4CCCN4c4ncnc(N)c4C#N)c(N4CCOCC4)nc3c2)c2cc[nH]c2c1=O (stereo not drawn) [Compound 6] |  | 3.5 |  |  |  |  | PI3K-inactive | 
4 | Cc1nnc2ccc(-c3ccc4cc(C5CCCN5c5ncnc(N)c5C#N)c(N5CCOCC5)nc4c3)nn12 (stereo not drawn) [Compound 7] |  | 694 |  |  |  |  |  | 
5 | Cc1cc(-c2ccc3cc(C4CCCN4c4ncnc(N)c4C#N)c(N4CCOCC4)nc3c2)cn(C)c1=O (stereo not drawn) [Compound 8] |  | 28 | 7.7 |  |  |  | PI3K-inactive | 
6 | Cc1noc(C)c1-c1cccc2cc(C3CCCN3c3ncnc(N)c3C#N)c(N3CCOCC3)nc12 (stereo not drawn) [Compound 9] | 3.25 | 9460 |  |  |  |  |  | 
7 | Cc1nnc2ccc(-c3cccc4cc(C5CCCN5c5ncnc(N)c5C#N)c(N5CCOCC5)nc34)nn12 (stereo not drawn) [Compound 10] | 30.5 | 3980 |  |  |  |  |  | 
8 | Cc1cc(-c2cccc3cc(C4CCCN4c4ncnc(N)c4C#N)c(N4CCOCC4)nc23)cn(C)c1=O (stereo not drawn) [Compound 11] | 5.34 | 24 | 86 | 56.6 | 567 | 247 |  | 
9 | Cn1cc(-c2cccc3cc(C4CCCN4c4ncnc(N)c4C#N)c(N4CCOCC4)nc23)c2cc[nH]c2c1=O (stereo not drawn) [Compound 12] | 5 | 35 |  |  |  |  |  | 
10 | Cc1cc(-c2c(F)ccc3cc(C4CCCN4c4nc(N)nc(N)c4C#N)c(N4CCOCC4)nc23)cn(C)c1=O (stereo not drawn) [Compound 13] |  | 799 | 12.4 | > 10000 |  |  |  | inactive
11 | Cc1cc(-c2c(F)ccc3cc(C4CCCN4c4nc(N)nc5[nH]cnc45)c(N4CCOCC4)nc23)cn(C)c1=O (stereo not drawn) [Compound 14] |  | > 10000 | 4210 |  |  |  |  | 
12 | Cc1cc(-c2c(F)ccc3cc(C4CCCN4c4ncnc(N)c4C#N)c(N4CCOCC4)nc23)cn(C)c1=O (stereo not drawn) [Compound 15] |  | 1250 | 680 |  |  |  |  | 
13 | Cc1cc(-c2ccc(F)c3cc(C4CCCN4c4ncnc(N)c4C#N)c(N4CCOCC4)nc23)cn(C)c1=O (stereo not drawn) [Compound 16] |  |  | 4970 |  |  |  |  | inactive

Now from value to compound, other results behind:

Row | IC50 [1] [nM] | IC50 [2] [nM] | IC50 [4] [nM] | IC50 [5] [nM] | IC50 [6] [nM] | IC50 [7] [nM] | SMILES | activity against PI3K in words [3] | overall activity in words (class I PI3Ks and BRD4) [3]
14 |  |  | 745 | > 10000 |  |  | Cc1cc(-c2ccc(F)c3cc(C4CCCN4c4nc(N)nc(N)c4C#N)c(N4CCOCC4)nc23)cn(C)c1=O (stereo not drawn) [Compound 17] |  | 
15 | 1.89 | 84.5 | 85.2 | 39.2 | 874 | 4270 | Cc1cc(-c2cccc3cc(C4CCCN4c4ncnc(N)c4C#N)c(N4CCCCC4)nc23)cn(C)c1=O (stereo not drawn) [Compound 18] |  | 
16 | 3.04 | 23.9 | 19.3 | 79.8 | 596 | 535 | Cc1cc(-c2cccc3cc(C4CCCN4c4ncnc(N)c4C#N)c(N(C)C)nc23)cn(C)c1=O (stereo not drawn) [Compound 19] |  | 
17 | 3.68 | 24.8 | 18.1 | 2 | 118 | 53.7 | Cn1cc(-c2cccc3cc(C4CCCN4c4nc(N)nc(N)c4C#N)c(N4CCOCC4)nc23)c2cc[nH]c2c1=O (stereo not drawn) [Compound 21] |  | 
18 | 19.3 | 636 | 74.5 | 171 | 3550 | 544 | CC(C)Nc1nc2c(-c3cn(C)c(=O)c4[nH]ccc34)cccc2cc1C1CCCN1c1ncnc(N)c1C#N (stereo not drawn) [Compound 22] |  | 
19 | 0.73 | 26.7 | 12.9 | 13 | 191 | 153 | Cc1cc(-c2cccc3cc([C@@H]4CCCN4c4ncnc(N)c4C#N)c(N4CCOCC4)nc23)cn(C)c1=O [Compound 23] |  | 
20 | 0.938 | 12.5 | 9.07 | 1.43 | 53.9 | 18.2 | Cn1cc(-c2cccc3cc([C@@H]4CCCN4c4nc(N)nc(N)c4C#N)c(N4CCOCC4)nc23)c2cc[nH]c2c1=O [Compound 24] |  | 
21 | 1.98 | 55.3 | 20.7 | 16.7 | 43.3 | 20.5 | Cn1cc(-c2cccc3cc(CNc4nc(N)nc(N)c4C#N)c(N4CCOCC4)nc23)c2cc[nH]c2c1=O [Compound 25] |  | 
22 | 1.56 | 446 | 148 | 11.7 | 354 | 1020 | Cc1cc(-c2cccc3cc(C4CCCN4c4ncnc(N)c4C#N)c(-c4ccccc4)nc23)cn(C)c1=O (stereo not drawn) [Compound 28] |  | 
23 | 1.23 | 37.9 | 46.6 | 19.2 | 263 | 867 | Cc1cc(-c2cccc3cc(C4CCCN4c4ncnc(N)c4C#N)c(-c4cccnc4)nc23)cn(C)c1=O (stereo not drawn) [Compound 29] |  | 
